# Test results published in patent EP1242382B1, “TRICYCLIC PROTEIN KINASE INHIBITORS” (Wyeth, priority 1999, dated 2001).
# Key:
# [1] = biological target: T1, EGF-R Kinase (recombinant enzyme) (Homo sapiens, UniProt P00533); experiment: Inhibition of Epidermal Growth Factor Receptor Kinase (EGF-R) using recombinant enzyme; type: biochemical; conditions: RR-SRC peptide substrate, (a) = average of two tests
# T1 construct: EGFR cDNA encoding amino acids 645 - 1186 preceded by Met-Ala-(His)6; made in house; host or cells: Sf9 insect cells, recombinant baculovirus vHcEGFR52
# T1 sequence (P00533 669-1210): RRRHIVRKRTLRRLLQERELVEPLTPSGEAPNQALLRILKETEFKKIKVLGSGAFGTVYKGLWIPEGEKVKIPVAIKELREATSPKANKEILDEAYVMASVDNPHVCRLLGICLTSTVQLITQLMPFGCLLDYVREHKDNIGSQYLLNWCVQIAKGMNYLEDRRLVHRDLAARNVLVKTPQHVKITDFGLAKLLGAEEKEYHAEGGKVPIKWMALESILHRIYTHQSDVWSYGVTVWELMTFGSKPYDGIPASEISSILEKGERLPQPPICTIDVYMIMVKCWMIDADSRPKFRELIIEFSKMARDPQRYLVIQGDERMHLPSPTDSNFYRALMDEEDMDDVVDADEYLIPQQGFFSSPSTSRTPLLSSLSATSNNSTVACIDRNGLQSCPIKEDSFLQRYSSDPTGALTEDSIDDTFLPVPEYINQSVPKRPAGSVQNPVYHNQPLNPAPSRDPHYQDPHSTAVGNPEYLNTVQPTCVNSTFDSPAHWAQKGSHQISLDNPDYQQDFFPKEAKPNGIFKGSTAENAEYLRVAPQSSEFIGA
# Experimental: Representative test compounds are evaluated in a standard pharmacological test procedure to measure their ability to inhibit the phosphorylation of the tyrosine residue of a peptide substrate catalyzed by the enzyme epidermal growth factor receptor kinase. […] The enzyme used in this assay is the His-tagged cytoplasmic domain of EGFR. […] Sf9 cells in 100 mm plates are infected at a multiplicity of infection of 10 pfu/cell and cells are harvested 48 h post infection. A cytoplasmic extract is prepared using 1% Triton X-100 and applied to Ni-NTA column. After washing the column with 20 mM imidazole, HcEGFR is eluted with 250 mM imidazole (in 50 mM Na2HPO4, pH 8.0, 300 mM NaCl). Fractions collected are dialyzed against 10 mM HEPES, pH 7.0, 50 mM NaCl, 10% glycerol, 1ug/mL antipain and leupeptin and 0.1 mM Pefabloc SC. The protein is frozen in dry ice/methanol and stored -70°C.
# Test compounds are made into 10 mg/mL stock solutions in 100% dimethylsulfoxide (DMSO). Prior to experiment, stock solutions are diluted to 500 uM with 100% DMSO and then serially diluted to the desired concentration with HEPES buffer (30 mM HEPES pH 7.4).
# For the enzyme reaction, 10 uL of each inhibitor (at various concentrations) are added to each well of a 96-well plate. To this is added 3 uL of enzyme (1:10 dilution in 10mM HEPES, pH 7.4 for final conc. of 1:120). This is allowed to sit for 10 min on ice and is followed by the addition of 5 ul peptide (80 uM final conc.), 10ul of 4X Buffer containing 50 mM HEPES (pH 7.4), 200 mM Na3VO4, 40mM MnCl2, 80 uM ATP, 0.25 uL ^33P-ATP (>2500 Ci/mmol; Amersham) and 12 uL H2O. The reaction is allowed to run for 90 min at room temperature and is followed by spotting the entire volume onto precut P81 filter papers. The filter discs are washed 2X with 0.5% phosphoric acid and radioactivity is measured using a liquid scintillation counter.
# The % inhibition of the test compound is determined for at least three different concentrations and the IC50 value is evaluated from the dose response curve. […] CPM(control) is in units of counts per minute and is a number expressing the amount of radiolabled ATP (γ-^33P) incorporated into the RR-SRC peptide substrate by the enzyme after 90 minutes at room temperature in the absence of test compound as measured by liquid scintillation counting. The CPM values are corrected for the background counts produced by ATP in the absence of the enzymatic reaction.
# [2] = test system: Human adenocarcinoma cell line LoVo; experiment: Cell based screen for inhibitors of Raf kinase, quantitative assay; conditions: 96 h, four days incubation
# Experimental: (§1) • Cell Lines: Human adenocarcinoma cell line LoVo which is known to be growth inhibited by low nM concentrations of a reference standard inhibitor of Ras and human adenocarcinoma cell line CaCo-2, which is known to be growth resistant to the same reference compound. • Cell Media : RPMI 1640 with 10% Fetal Bovine Serum supplemented with L-glutamine and Pennicilin/Streptomycin. • Compounds: Supplied usually as a 10 mM stock in 100% DMSO. • Normal Saline: 150 mM NaCl • Trichloroacetic Acid (TCA): 50% (w/v) in water • Sulforhodamine B (SRB): 0.4% (w/v) in 1% Acetic Acid • Tris Base: 10 mM in water
# (§2) Cells are plated at 2000 cells per well for cell line LoVo and 1500 cells for cell line CaCo-2 in 96 well plates. Cells are plated in media (200 µl) and allowed to adhere overnight at 37°C. At 24 hours post plating, compounds are added directly at a volume of 0.5 µl. For the qualitative screen (compounds screened at 25 µM) compound is added directly to cells. For the quantitative screen, compound is first diluted in DMSO to generate concentrations of compound or reference standard of: 1, 5, 10 and 25 µM. It is advisable to make the dilutions in an identical 96 well plate so that compounds can be added using a multichannel micropipettor set at 0.5 µl. The cells are then incubated for four days after which the media is removed using a 12 well manifold by first tipping the plate forward at a 45 degree angle and then inserting the manifold in an upright orientation to prevent the tips of the manifold from disturbing cells at the bottom of the plate. 200 µl of normal saline is then added to each well using an 8 well multichannel pipettor, followed by the careful addition of 50 µl of 50% TCA. The plates are then incubated for 2 hours at 4°C, after which the supernatant is removed using the same technique as above and the plated washed twice with 200 µl water. The plates are then air dried and 50 µl of SRB stock solution is carefully added so that the entire bottom of each well is covered. This again can be used using an 8 well multichannel pipettor. The SRB is incubated with fixed cells for 15 minutes at room temperature after which the SRB is removed with the manifold as described above and the plates washed twice with 350 µl of 1% acetic acid per well each time. The plates are then air dried after which the bound SRB is released from protein by the addition of 200 µl of Tris base. Resolubilizing the SRB is aided by placing the plates on a rotator for 15-30 minutes. The absorbance of each well is determined at 550 or 562 nm using a microtiter plate reader.
# (§3) Each compound or dilution thereof is performed in triplicate. Outliers are identified by visual inspection of the data. Each plate should have a "0" control (vehicle only).
# (§4) Quantitative Assay: A standard curve is constructed by plotting the concentration of compound against the average absorbance calculated at that concentration. […] Multiple entries for a given compound indicate that it is tested multiple times.
# [3] = test system: human adenocarcinoma cell line CaCo-2; experiment: as above; conditions: Caco-2, 96 h, four days incubation
# Experimental: as §1, §2, §3, §4
# Raf-1 (c-Raf) = biological target: T2, Raf-1 (c-Raf) (Homo sapiens, UniProt P04049); experiment: Raf1 kinase cascade assay procedure; type: biochemical
# T2 construct: Sf9 insect cell lysate containing full length 6his-tagged recombinant human c-Raf; host or cells: c-Raf: Sf9 insect cell lysate; MEK1 and MAPK: E. coli
# T2 sequence (P04049 whole entry): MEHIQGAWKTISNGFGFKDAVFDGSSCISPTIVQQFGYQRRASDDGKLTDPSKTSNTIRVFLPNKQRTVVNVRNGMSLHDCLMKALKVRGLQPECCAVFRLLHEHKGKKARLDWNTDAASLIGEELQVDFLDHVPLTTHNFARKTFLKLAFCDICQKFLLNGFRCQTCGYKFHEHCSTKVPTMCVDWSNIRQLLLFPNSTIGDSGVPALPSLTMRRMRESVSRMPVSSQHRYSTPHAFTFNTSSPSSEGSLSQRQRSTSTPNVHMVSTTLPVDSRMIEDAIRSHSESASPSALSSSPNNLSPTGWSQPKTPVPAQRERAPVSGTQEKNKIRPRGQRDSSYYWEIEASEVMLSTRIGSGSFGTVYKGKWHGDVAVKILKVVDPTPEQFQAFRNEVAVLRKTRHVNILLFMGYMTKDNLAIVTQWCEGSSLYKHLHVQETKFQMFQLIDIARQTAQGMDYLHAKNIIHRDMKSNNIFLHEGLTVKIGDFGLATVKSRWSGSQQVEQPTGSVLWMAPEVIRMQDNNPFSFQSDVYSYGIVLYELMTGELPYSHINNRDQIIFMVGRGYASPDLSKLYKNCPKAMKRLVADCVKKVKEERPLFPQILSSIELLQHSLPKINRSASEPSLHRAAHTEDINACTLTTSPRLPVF
# Experimental: (Specific Activity: ~200U/ml). Human Non-active Mek-1-GST and human GST-MAP kinase (recombinant proteins produced in E. coli).
# • 1. Assay Dilution Buffer (ADB): 20mM MOPS, pH 7.2, 25mM β-glycerol phosphate, 5mM EGTA, 1mM sodium orthovanadate, 1mM dithiothreitol. • 2. Magnesium/ATP Cocktail: 500µM cold ATP and 75 mM magnesium chloride in ADB. • 4. Active Kinase: Human Active c-Raf: Use at 0.4U per assay point • 5. Non-active GST-MEK1: Use at 0.1µg per assay point. • 6. Non-active GST-p42 MAP Kinase: Use at 1.0 µg per assay point
# • 1. TBST - Tris (50 mM, pH 7.5), NaCl (150 mM), Tween-20 (0.05 %) • 2. Superblock (Pierce) • 3. Anti-GST Ab (Pharmacia) • 4. Anti-Phospho MAPK (Sigma) • 5. Anti-Mouse Ab / Europium conjugate (Wallac)
# First Stage: c-Raf Dependent Activation of GST-MEK and GST-MAPK • 1. Add […] of ADB per assay (i.e. per well of a 96 well plate) • 2. Add 10 ml of 0.5 mM cold ATP and 75 mM magnesium chloride in ADB. • 3. Add 2 ml of c-Raf (0.4U/assay), in conjunction with 1.6ml non-active MEK1 ([…]). • 4. Add 4 ml of non-active GST-p42 MAP Kinase (1.0 mg/assay). • 5. Incubate for 60 minutes at 30°C in a shaking incubator. • 6. Transfer this mixture to an anti-GST Ab coated 96 well plate (Nunc Immunosorb plates coated o/n with a-GST, then blocked with Pierce Superblock). • 7. Incubate for 60 minutes at 30°C in a shaking incubator Wash 3X with TBST, add Anti-Phospho MAPK (Sigma) (1:3000) • 6. Incubate for 60 minutes at 30°C in a shaking incubator • 7. Wash 3X with TBST, add Anti-Mouse Ab / Europium conjugate (Wallac) (1:500) • 8. Incubate for 60 minutes at 30°C in a shaking incubator • 9. Wash 3X with TBST, Read plates in Wallac Victor model Plate Reader. • 10. Collect data analyze in Excel for single point and IC50 determinations.
# Typically Raf-1 assay is run at compound concentrations from 10 µM to 1 nM in half log dilutions. (% inhibition is determined for each compound concentration).
IC50 [2] [nM],IC50 [3] [nM],IC50 (Raf-1 (c-Raf)) [nM],SMILES,IC50 [1] [nM]
250,8000,310,"COc1cc2cc3ncc(C#N)c(Nc4ccc(Oc5ccccc5)c(Cl)c4)c3cc2cc1OCCN1CCOCC1 [Example 214, 4-(3-Chloro-4-phenoxyphenylamino)-8-methoxy-7-(2-morpholin-4-yl-ethoxy)benzo[g]quinoline-3-carbonitrile]",
480,4800,> 10000,"COc1cc2cc3ncc(C#N)c(Nc4ccc(OCc5ccccc5)c(Cl)c4)c3cc2cc1OCCN1CCOCC1 [Example 217, 4-(4-Benzyloxy-3-chlorophenylamino)-8-methoxy-7-(2-morpholin-4-yl-ethoxy)benzo[g]quinoline-3-carbonitrile]",
300,1400,27,"COc1cc2cc3c(Nc4ccc(Oc5ccccc5)c(Cl)c4)c(C#N)cnc3cc2cc1OCCN1CCOCC1 [Example 213, 4-(3-Chloro-4-phenoxyphenylamino)-7-methoxy-8-(2-morpholin-4-yl-ethoxy)benzo[g]quinoline-3-carbonitrile]",

# The next lines start with the compound.
SMILES,IC50 [2] [nM],IC50 [3] [nM],IC50 (Raf-1 (c-Raf)) [nM],IC50 [1] [nM]
"COc1cc(Nc2c(C#N)cnc3cc4cc(OCCN5CCOCC5)c(OC)cc4cc23)c(Cl)cc1C [Example 216, 4-(2-Chloro-5-methoxy-4-methylphenylamino)-7-methoxy-8-(2-morpholin-4-yl-ethoxy)benzo[g]quinoline-3-carbonitrile]",,,,290
"COc1cc2cc3c(Nc4ccc(F)c(Cl)c4)c(C#N)cnc3cc2cc1OCCN1CCOCC1 [Example 205, 4-(3-Chloro-4-fluoroanilino)-7-methoxy-8-[2-(4-morpholinyl)ethoxy]benzo[g]quinoline-3-carbonitrile]",,,,250
"N#Cc1cnc2c(c1Nc1ccc(Oc3ccccc3)cc1)C=C1N=CN=C1C2 [Example 44, 8-(4-Phenoxyanilino)imidazo[4,5-g]quinoline-7-carbonitrile]",850,9200,9,
"COc1cc2cc3c(Nc4ccc(Sc5nccn5C)c(Cl)c4)c(C#N)cnc3nc2cc1OCCCl [Example 174, 8-(2-Chloroethoxy)-4-{3-chloro-4-[(1-methyl-1H-imidazol-2-yl)sulfanyl]anilino}-7-methoxybenzo[b][1,8]naphthyridine-3-carbonitrile]",440,4000,> 10000,
"COc1cc2cc3c(Nc4ccc(Sc5nccn5C)c(Cl)c4)c(C#N)cnc3nc2cc1OCCN1CCOCC1 [Example 176, 4-{3-Chloro-4-[(1-methyl-1H-imidazol-2-yl)sulfanyl]anilino}-7-methoxy-8-[2-(4-morpholinyl)ethoxy]benzo[b][1,8]naphthyridine-3-carbonitrile]",3500,10000,3000,
"COc1cc(Nc2c(C#N)cnc3cc4cc(OCCN5CCOCC5)c(OC)cc4cc23)c(C)cc1Cl [Example 124, 4-(4-chloro-5-methoxy-2-methylanilino)-7-methoxy-8-[2-(4-morpholinyl)ethoxy]benzo[g]quinoline-3-carbonitrile]",,,130,3000
